Tests used:
HepG2 cells = assay: MTT assay HepG2; format: cell-based; conditions: Homo sapiens, 24h of treatment, mean ± SD
Experimental: (§1) Details are given in Supplementary Materials and Methods. Using probability unit and weighted regression method to calculate the IC50 value of compounds.
(§2) Total cells in the logarithmic growth phase were collected, digested using 0.25% pancreatic enzymes, and then diluted into single-cell suspensions using phosphate-buffered solution (PBS). These cells were seeded into 96-well plates at 4× 10^3-5× 10^3 cells per well (100 µL per well) and then A549, H460, OVCAR-3, SGC7901, MDA-MB-231, HCT116 and HepG2 were cultured at 37°Cin an incubator containing 5% CO2. After cell complete attachment, 100 µL of different concentrations of compounds (0.625 μM, 1.25 μM, 2.5μM, 5 μM, 10 μM) were added to the cells after the nutrient solution in each well was discarded, while no compound except 0.1% DMSO was added to cells in the control group; at the same time, each concentration was set up to 5 wells. In addition, 5 wells in each 96-well plate only received 100 µL of nutrient solution as a blank control. The plates were taken out after the cells were incubated with compounds for 24 h, and 20 µL of MTT solution (5 mg/mL) (Wuhan Boster Biotechnology Limited Company, Wuhan, China; item No. AR1156) was added into all the wells. After another time of incubation for 4 h at 37 °C, the nutrient solution in each well was discarded slowly, and 150 µL of DMSO was added to each well. The plates were shaken on a shaking table for 20 min. When the crystals were fully dissolved, the blank wells were used to zero the plate reader. The optical density (OD) of each well was detected at 490 nm. The IC50 value was determined as the concentration of the inhibitor that caused 50% inhibition. Using probability unit and weighted regression method to calculate the IC50 value of compounds.

OVCAR-3 cells = assay: MTT assay OVCAR-3; format: cell-based; conditions: Homo sapiens, 24h of treatment, mean ± SD
Experimental: as §1, §2

MDA-MB-231 cells = assay: MTT assay MDA-MB-231; format: cell-based; conditions: Homo sapiens, 24h of treatment, mean ± SD
Experimental: as §1, §2

A549 cells = assay: MTT assay A549; format: cell-based, human; conditions: Homo sapiens, A549, 24h of treatment, mean ± SD
Experimental: as §1, §2

human TS (hTS) = molecular target: T1, human TS (hTS) (Homo sapiens, UniProt P04818); assay: Thymidylate synthase (TS) spectrophotometric assay; format: biochemical; conditions: averages from triplicate assays
T1 construct: purchased ProSpec-Tany
Experimental: Recombinant human thymidylate synthase purchased from ProSpec-Tany Company. TS was assayed spectrophotometrically at 30 °C and pH 7.4 in a mixture containing 0.1 M 2-mercaptoethanol, 0.0003 M (6R,S)-tetrahydrofolate, 0.012 M formaldehyde, 0.02 M MgCl2, 0.001 M dUMP, 0.04 M Tris–HCl, 30 nM hTS, and 0.00075 M NaEDTA. […] The reaction was initiated by the addition of an amount of enzyme yielding a change in absorbance at 340 nm of 0.016/min in the absence of inhibitor.

BRaf kinase = BRaf kinase (Homo sapiens, UniProt P15056); assay: ADP-Glo kinase assay, BRaf; format: biochemical; conditions: averages from triplicate assays
Experimental: (§3) The ADP-Glo™ kinase assay (Promega, Madison, WI) was used to screen target compounds for their inhibition effects for BRaf, EGFR kinase. The kinase assay was carried out in a 96-well plate, in a volume of 25 μL HEPES (pH 7.3) solvent containing 1.6 μg/mL EGF, and 20 ng of EGFR kinase, or 50 ng BRaf kinase, and 10 μM ATP (Promega, Madison, WI). […] Reactions in each well were started immediately by adding ATP and kept going for half an hour under 30 °C in a constant temperature incubator (Bluepard, Shanghai, China). After the plate cooled for 5 min at room temperature, 25 μl of ADP-Glo reagent was added into each well to stop the reaction and consume the remaining […] within 40 min. At the end, 50 μl of kinase detection reagent was added into the well and incubated for 1 h to produce a luminescence signal.

EGFR kinase = EGFR kinase (Homo sapiens, UniProt P00533); assay: ADP-Glo kinase assay, EGFR; format: biochemical; conditions: averages from triplicate assays
Experimental: as §3

SGC7901 cells = assay: MTT assay SGC7901; format: cell-based; conditions: Homo sapiens, SGC-7901, 24h of treatment, mean ± SD
Experimental: as §1, §2

HCT-116 cells = assay: MTT assay HCT-116; format: cell-based; conditions: Homo sapiens, 24h of treatment, mean ± SD
Experimental: as §1, §2

Sequence of BRaf kinase (P15056 whole entry): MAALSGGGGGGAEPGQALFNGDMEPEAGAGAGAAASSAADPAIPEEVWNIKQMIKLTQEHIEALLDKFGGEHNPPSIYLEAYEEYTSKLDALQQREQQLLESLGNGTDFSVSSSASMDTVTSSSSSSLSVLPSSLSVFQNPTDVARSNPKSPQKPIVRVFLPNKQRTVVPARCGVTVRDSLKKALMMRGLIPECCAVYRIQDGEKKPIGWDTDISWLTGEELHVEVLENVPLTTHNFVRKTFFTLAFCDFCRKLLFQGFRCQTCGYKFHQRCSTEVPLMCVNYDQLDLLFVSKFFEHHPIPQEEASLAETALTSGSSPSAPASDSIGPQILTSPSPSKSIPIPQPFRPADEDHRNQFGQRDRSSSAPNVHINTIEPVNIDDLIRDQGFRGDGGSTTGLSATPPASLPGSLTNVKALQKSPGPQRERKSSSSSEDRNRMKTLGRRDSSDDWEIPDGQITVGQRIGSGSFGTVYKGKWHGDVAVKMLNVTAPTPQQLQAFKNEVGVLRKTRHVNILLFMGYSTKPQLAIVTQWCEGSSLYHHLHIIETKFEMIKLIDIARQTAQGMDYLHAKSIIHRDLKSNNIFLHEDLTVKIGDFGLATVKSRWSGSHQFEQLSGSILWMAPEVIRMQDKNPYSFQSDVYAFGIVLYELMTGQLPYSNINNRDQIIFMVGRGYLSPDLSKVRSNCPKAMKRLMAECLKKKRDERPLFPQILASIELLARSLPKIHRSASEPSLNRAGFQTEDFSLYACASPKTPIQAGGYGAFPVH
T1 sequence (P04818 whole entry): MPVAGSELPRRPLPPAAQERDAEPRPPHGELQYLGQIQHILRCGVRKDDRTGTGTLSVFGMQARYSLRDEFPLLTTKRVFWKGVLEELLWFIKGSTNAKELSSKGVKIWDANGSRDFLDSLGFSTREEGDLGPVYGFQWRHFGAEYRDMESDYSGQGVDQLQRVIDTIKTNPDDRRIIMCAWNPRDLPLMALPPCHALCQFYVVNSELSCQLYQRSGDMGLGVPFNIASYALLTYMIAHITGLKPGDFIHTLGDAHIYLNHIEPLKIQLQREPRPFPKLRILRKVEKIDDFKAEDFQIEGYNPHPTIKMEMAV
Sequence of EGFR kinase (P00533 25-1210): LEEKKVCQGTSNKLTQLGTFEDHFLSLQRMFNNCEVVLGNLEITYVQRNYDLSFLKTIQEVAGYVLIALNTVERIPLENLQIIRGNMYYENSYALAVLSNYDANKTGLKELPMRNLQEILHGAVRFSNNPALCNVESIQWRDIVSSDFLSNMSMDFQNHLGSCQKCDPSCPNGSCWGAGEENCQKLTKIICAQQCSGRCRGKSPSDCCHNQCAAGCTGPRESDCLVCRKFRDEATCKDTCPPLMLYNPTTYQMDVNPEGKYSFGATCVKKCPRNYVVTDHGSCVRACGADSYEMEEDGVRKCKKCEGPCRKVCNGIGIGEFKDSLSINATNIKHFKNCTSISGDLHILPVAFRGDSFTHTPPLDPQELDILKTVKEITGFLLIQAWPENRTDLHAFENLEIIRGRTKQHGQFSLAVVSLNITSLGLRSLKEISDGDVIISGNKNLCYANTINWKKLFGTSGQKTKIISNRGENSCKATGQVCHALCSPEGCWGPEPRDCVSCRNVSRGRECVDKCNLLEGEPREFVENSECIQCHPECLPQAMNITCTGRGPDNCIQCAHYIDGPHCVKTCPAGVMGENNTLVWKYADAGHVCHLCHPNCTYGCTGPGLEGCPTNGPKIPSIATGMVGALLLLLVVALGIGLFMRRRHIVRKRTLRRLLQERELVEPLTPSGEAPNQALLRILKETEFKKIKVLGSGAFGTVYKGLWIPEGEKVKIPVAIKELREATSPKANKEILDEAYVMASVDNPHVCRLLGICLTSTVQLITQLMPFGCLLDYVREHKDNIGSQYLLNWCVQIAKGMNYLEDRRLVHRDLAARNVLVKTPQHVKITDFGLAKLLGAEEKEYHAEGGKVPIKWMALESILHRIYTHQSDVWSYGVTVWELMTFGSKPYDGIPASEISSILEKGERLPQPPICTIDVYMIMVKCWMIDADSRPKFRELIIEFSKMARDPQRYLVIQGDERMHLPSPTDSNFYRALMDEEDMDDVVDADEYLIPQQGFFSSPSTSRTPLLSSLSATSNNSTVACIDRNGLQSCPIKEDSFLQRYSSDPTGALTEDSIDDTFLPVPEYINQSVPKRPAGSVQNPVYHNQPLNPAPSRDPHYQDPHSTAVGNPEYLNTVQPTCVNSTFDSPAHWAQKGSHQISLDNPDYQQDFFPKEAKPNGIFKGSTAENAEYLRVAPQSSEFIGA

Row | SMILES | IC50 (HepG2 cells) [µM] | IC50 (OVCAR-3 cells) [µM] | melting point [°C] | IC50 (MDA-MB-231 cells) [µM] | IC50 (A549 cells) [µM] | IC50 (human TS (hTS)) [µM] | IC50 (BRaf kinase) [µM] | IC50 (EGFR kinase) [µM] | IC50 (SGC7901 cells) [µM] | IC50 (HCT-116 cells) [µM]
1 | O=C(Nc1ccc(NS(=O)(=O)c2c[nH]c(=O)[nH]c2=O)cc1)Nc1ccccc1Cl [Compound L13d, N'-(2-chlorophenyl)-4-(2,4-dihydroxypyrimidine-5-sulfonamido)phenylurea] | 6.56 ± 0.15 | 1.73 ± 0.44 | 167 to 169 | > 10 | 2.01 ± 0.14 | 2.36 | 2.39 | 4.22 | 5.3 ± 0.28 | 4.13 ± 0.16
2 | O=C(Nc1ccc(NS(=O)(=O)c2c[nH]c(=O)[nH]c2=O)cc1)Nc1cccc(Cl)c1 [Compound L13e, N'-(3-chlorophenyl)-4-(2,4-dihydroxypyrimidine-5-sulfonamido)phenylurea] | 2.81 ± 0.16 | 1.05 ± 0.42 | 169 to 171 | 2.48 ± 1.46 | 0.95 ± 0.05 | 4.55 | 3.64 | 4.41 | 3.38 ± 0.18 | 2.46 ± 0.06
3 | O=C(Nc1ccc(Cl)cc1)Nc1ccc(NS(=O)(=O)c2c[nH]c(=O)[nH]c2=O)cc1 [Compound L13f, N'-(4-chlorophenyl)-4-(2,4-dihydroxypyrimidine-5-sulfonamido)phenylurea] | 4.35 ± 0.45 | 8.04 ± 0.32 | 175 to 177 | 8.89 ± 2.42 | 0.99 ± 0.07 | 6.3 | 3.59 | 4.65 | 3.98 ± 0.05 | 5.53 ± 0.25
4 | Cc1ccccc1NC(=O)Nc1ccc(NS(=O)(=O)c2c[nH]c(=O)[nH]c2=O)cc1 [Compound L13g, N'-(2-methylphenyl)-4-(2,4-dihydroxypyrimidine-5-sulfonamido)phenyl urea] | 9.16 ± 0.12 | 2.68 ± 0.38 | 169 to 173 | > 10 | 4.68 ± 0.11 | 9.25 | > 10 | > 10 | 6.39 ± 0.19 | 4.75 ± 0.07
5 | Cc1cccc(NC(=O)Nc2ccc(NS(=O)(=O)c3c[nH]c(=O)[nH]c3=O)cc2)c1 [Compound L13h, N'-(3-methylphenyl)-4-(2,4-dihydroxypyrimidine-5-sulfonamido)phenylurea] | 5.83 ± 0.18 | 9.56 ± 0.94 | 179 to 182 | > 10 | 1.85 ± 0.13 | 4.57 | 3.53 | 3.99 | 6.35 ± 0.52 | 5.46 ± 1.21
6 | Cc1ccc(NC(=O)Nc2ccc(NS(=O)(=O)c3c[nH]c(=O)[nH]c3=O)cc2)cc1 [Compound L13i, N'-(4-methylphenyl)-4-(2,4-dihydroxypyrimidine-5-sulfonamido) phenyl urea] | 8.25 ± 0.25 | > 10 | 181 to 183 | > 10 | 3.48 ± 0.13 | 7.39 | 4.91 | 5.48 | 4.92 ± 0.23 | 7.98 ± 0.61
7 | O=C(Nc1ccccc1Cl)Nc1ccccc1NS(=O)(=O)c1c[nH]c(=O)[nH]c1=O [Compound L14d, N'-(2-chlorophenyl)-2-(2,4-dihydroxypyrimidine-5-sulfonamido)phenyl urea] | 2.2 ± 0.06 | 7.27 ± 1.23 | 151 to 153 | 6.71 ± 0.18 | 3.29 ± 0.3 | 1.91 | 1.62 | 2.39 | 5.22 ± 0.18 | 4.96 ± 0.63
8 | O=C(Nc1ccc(Cl)cc1)Nc1ccccc1NS(=O)(=O)c1c[nH]c(=O)[nH]c1=O [Compound L14f, N'-(4-chlorophenyl)-2-(2,4-dihydroxypyrimidine-5-sulfonamido)phenyl urea] | 1.62 ± 0.1 | 6.52 ± 0.5 | 160 to 163 | 4.54 ± 0.41 | 1.38 ± 0.27 | 2.12 | 1.71 | 2.23 | 3.98 ± 0.33 | 4.22 ± 0.31
9 | Cc1ccccc1NC(=O)Nc1ccccc1NS(=O)(=O)c1c[nH]c(=O)[nH]c1=O [Compound L14g, N'-(2-methylphenyl)-2-(2,4-dihydroxypyrimidine-5-sulfonamido)phenyl urea] | 5.59 ± 0.64 | > 10 | 151 to 154 | > 10 | 2.09 ± 0.72 | 6.47 | 7.41 | > 10 | 5.4 ± 0.09 | 4.82 ± 0.19
10 | Cc1cccc(NC(=O)Nc2ccccc2NS(=O)(=O)c2c[nH]c(=O)[nH]c2=O)c1 [Compound L14h, N'-(3-methylphenyl)-2-(2,4-dihydroxypyrimidine-5-sulfonamido)phenylurea] | > 10 | 7.3 ± 0.68 | 155 to 158 | 7.16 ± 0.9 | 1.45 ± 0.06 | 3.52 | 3.61 | 4.28 | 3.3 ± 0.15 | 5.39 ± 0.41
11 | Cc1ccc(NC(=O)Nc2ccccc2NS(=O)(=O)c2c[nH]c(=O)[nH]c2=O)cc1 [Compound L14i, N'-(4-methylphenyl)-2-(2,4-dihydroxypyrimidine-5-sulfonamido)phenylurea] | 5.72 ± 0.21 | > 10 | 165 to 169 | 7.3 ± 0.1 | 1.37 ± 0.45 | 6.98 | 5.45 | > 10 | 5.13 ± 0.44 | 5.62 ± 0.61
12 | O=C(Nc1cccc(NS(=O)(=O)c2c[nH]c(=O)[nH]c2=O)c1)Nc1ccccc1Cl [Compound L15d, N'-(2-chlorophenyl)-3-(2,4-dihydroxypyrimidine-5-sulfonamido)phenylurea] | 4.97 ± 0.36 | 6.3 ± 0.25 | 159 to 162 | 2.04 ± 0.29 | 1.87 ± 0.12 | 3.81 | 4.09 | 7.65 | 5.25 ± 0.81 | 2.65 ± 0.33
13 | O=C(Nc1cccc(Cl)c1)Nc1cccc(NS(=O)(=O)c2c[nH]c(=O)[nH]c2=O)c1 [Compound L15e, N'-(3-chlorophenyl)-3-(2,4-dihydroxypyrimidine-5-sulfonamido)phenylurea] | 2.29 ± 0.29 | 1.19 ± 0.49 | 162 to 166 | 3.13 ± 0.09 | 0.87 ± 0.28 | 2.17 | 2.96 | 4.37 | 2.58 ± 0.43 | 3.3 ± 0.07
14 | O=C(Nc1ccc(Cl)cc1)Nc1cccc(NS(=O)(=O)c2c[nH]c(=O)[nH]c2=O)c1 [Compound L15f, N'-(4-chlorophenyl)-3-(2,4-dihydroxypyrimidine-5-sulfonamido)phenylurea] | 3.07 ± 0.29 | 1.49 ± 0.28 | 169 to 171 | 3.2 ± 0.62 | 1.01 ± 0.11 | 1.55 | 2.68 | 5.54 | 4.28 ± 0.67 | 7.61 ± 0.04
15 | CNC(=O)c1cc(Oc2ccc(NC(=O)Nc3ccc(Cl)c(C(F)(F)F)c3)cc2)ccn1 [Sorafenib, reference compound] | 8.21 ± 0.34 | > 10 | – | > 10 | > 10 | – | – | – | > 10 | > 10
